Assay results as given in patent US8658677B2, “Pyridyl-2-methylamino compounds, compositions and uses thereof” (Aria Neurosciences Inc., priority 2011, dated 2014).
Entries after “also recorded” stand apart in the source; their conditions may differ.

Legend:
Aβ40 = biological target: T1, Aβ40 (Homo sapiens, UniProt P05067); experiment: Oligomerization assay; type: biochemical
T1 construct: host or cells: chemical solid-phase peptide synthesis (no expression host)
Protocol: […] monomerized synthetic Aβ40 was incubated in 0.1M Tris pH 7.0, T=37° C. for 8 days in the presence of 0-100 μM concentration of compounds. […] An arrow indicates Aβ monomers clustered in ill developed protofibril. (C) Oligomerization assay. ARN4261 and ARN4224 reduced the amount of Aβ oligomers by 78% and 74%, respectively p<0.001. A compound 69b (GKLVFNmgA) was used as a positive control. 69b is homologous to Aβ sequence 17-21 and contains N-methyl glycine (Nmg), which renders it capable of anti-fibrillization and anti-oligomerization effect. (D) Principle of oligomerization assay. 100 μM Aβ40 was aggregated alone or with the addition of 10 μM of tested compounds [1:10 compound: Ab ratio] for 24 h in conditions promoting oligomers assembly, i.e., DMEM/F-12 medium+0.2% SDS, T=4° C. Prior to SDS-PAGE in non-reducing conditions samples were treated with glutaraldehyde. A strong smear of Aβ oligomers is seen between 37 and 70 KDa markers (arrows) in lane 2, and a dense band below the 25 KDa marker reflects Aβ monomers non-dissociated by 10% polyacrylamide gel. No oligomers above 37 KDa marker are seen in lane 1 containing only Aβ monomers run as a control. […] (E) TEM of Aβ oligomers. […] Yellow arrowhead indicates smaller oligomers.

M17 neuroblastoma cells = experiment: Rescue of M17 neuroblastoma cells from death induced by MPP+ and H2O2 (MTT); type: cell-based
Text: Cell viability was detected by MTT assay.

Log P = type: physicochemical
APPSW/PS1dE9 mice = experiment: Memory testing: object recognition and 8-armed radial arm maze; type: in vivo; settings: 50 mg/kg/day ip, last three weeks of treatment
Protocol: Female APPSW/PS1dE9 mice received ARN2966 (n=10) or Vehicle (n=15) from the age of six to ten months. ARN2966 (50 mg/kg/day) was given once a day by intraperitoneal injection. […] After conclusion of the experiments, samples of organs from ARN2966 and Vehicle treated animals were subjected to histopathological evaluation conducted by a veterinary pathologist. […] Signs of mild chronic peritonitis related to repeated daily intraperitoneal compound injection, however, were reported in both groups.
P<0.05, unpaired, two-tailed t-test. […] One session is given per day. […] Starting from day five, vehicle treated APPSW/PS1dE9mice were consistently making more errors than ARN2966 treated APPSW/PS1dE9 and non-Tg littermates. One-way ANOVA p<0.001.
During the last three weeks of treatment, animals were behaviorally tested using object recognition paradigm and the 8-armed radial arm maze, both of which measure memory capability. […] However, vehicle treated APPSW/PS1dE9 mice were incapable of discriminating between familiar and novel objects, as is characteristic of their phenotype.

APP = experiment: Acute treatment experiment: brain soluble Aβ40, APP, C99 and C83; type: in vivo, mice; settings: five days ip, ARN2966 50 mg/kg/day, Compound E 3 mg/kg/day
Protocol: Furthermore, we conducted an acute treatment experiment where six months old female APPSW/PS1dE9 mice (n=3/group) were treated for five days with ARN2966 (50 mg/kg/day), Compound E (3 mg/kg/day) or Vehicle injected intraperitoneally. Mice were killed three hours after the last injections. The level of soluble Aβ40 was measured in the brain aliquots following diethylamine (DEA) extraction. It was lower in ARN2966 and Compound E treated groups by 39% (p<0.05) and 60% (p<0.05) comparing to vehicle treated mice, respectively (p<0.05; FIG. 6E).
(§1) FIGS. 6.(A, B) ARN2966 treatment reduces load of Aβ plaques (n=10 ARN2966, n=15 Vehicle). (B) Representative photomicrograph of Th-S stained brain sections from vehicle and ARN2966 treated 10 month old, female APPSW/PS1dE9reveal a difference in the load of Aβ plaques. […] (D) Reduced Aβ40 and Aβ42 levels in FA extracted brain homogenate, which represent the total brain content of Aβ peptides in ARN2966 treated animals (ELISA). (E) Reduced soluble Aβ40 level in DEA extracted brain homogenate, of ARN2966 and Compound E treated mice (ELISA). […] Aβ concentrations in (C) (D) and (E) are given per gram of wet brain. All values are given as mean±SEM. Statistical analysis was done using two-tailed unpaired t-test, following confirmation of normal distribution of data using Shapiro-Wilk test.

Aβ plaques = experiment: Aβ plaque load and brain Aβ level after chronic treatment; type: in vivo, mice
Protocol: Female APPSW/PS1dE9 AD double transgenic (Tg) mice received daily intraperitoneal injections of ARN2966 (50 mg/kg) starting from the age of six months until the age of 10 months.
Following the course of ARN2966 treatment, animals were sacrificed, and the load of Thioflavin-S (Th-S) stained Aβ plaques (% of histological section area covered by plaques) was quantified in the brain cortex on serial coronal sections through the rostrocaudal axis of the right hemisphere as described by us [Sadowski 2004]. The left hemisphere was homogenized (1:10 weight/volume), and aliquots of the homogenate were used to measure the level of Aβ oligomers (Aggregated β-Amyloid ELISA Kit, [Invitrogen]) or subjected to formic acid (FA) extraction to determine total Aβ40 and Aβ42 brain levels via sandwich ELISAs discriminating C-terminal configuration of both peptides as described by us [Sadowski 2006]. […] Levels of FA extracted Aβ40 and Aβ42 were reduced by 82% (p<0.001) and 56% (p<0.001; FIG. 6C).
as §1

[1] = 50 mg/kg/day ip, age six to ten months, ELISA

T1 sequence (P05067 672-711): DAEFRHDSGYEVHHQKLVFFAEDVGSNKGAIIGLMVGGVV

## Oc1ccccc1N=Cc1ccccn1 [ARN4261, 2-(Pyridin-2-ylmethyleneamino)-phenol]
Aβ40
  TEM of Aβ oligomers: increased number of Aβ monomers and dimers
Aβ40; 100 μM Aβ40, 10 μM compound, 24 h, DMEM/F-12 + 0.2% SDS, 4° C.
  reduction of the amount of Aβ oligomers: 78%
Aβ40; 100 μM Aβ40, 10 μM compound, 24 h, lanes 3-5
  amount of oligomers on SDS-PAGE: reduced amount of oligomers

## Oc1ccccc1NCc1ccccn1 [ARN2966, 2-[(pyridine-2-ylmethyl)-amino]-phenol]
M17 neuroblastoma cells
  cell morphology by phase contrast microscopy: restored normal cell morphology
M17 neuroblastoma cells; 300 μM H2O2, increasing concentrations, MTT
  rescue of cell death induced by H2O2: rescue M17 neuroblastoma cell death
M17 neuroblastoma cells; 0.5 mM MPP+, increasing concentrations, MTT
  rescue of cell death induced by MPP+: rescue M17 neuroblastoma cell death
Log P
  logP: 1.96
APPSW/PS1dE9 mice
  object recognition test: spent significantly more time exploring the novel object; also recorded: able to distinguish a novel object from the familiar object
  radial arm maze, errors per session: made fewer errors than vehicle group
APP
  APP, C99 and C83 signal in brain homogenate (western immunoblotting): evident reduction of APP, C99, and C83 signal
APP; killed three hours after last injection
  lowering of soluble Aβ40 (DEA extraction) in brain vs vehicle: 39%
Aβ plaques; 50 mg/kg daily ip, age six to 10 months
  reduction in the Aβ load (unbiased quantification, Thioflavin-S): 25.8%
Aβ plaques; 50 mg/kg/day ip, age six to ten months
  reduction of load of Th-S positive plaques in the brain cortex: 21.9%
Aβ plaques; [1]
  reduction of FA extracted Aβ40 brain level: 82%
  reduction of FA extracted Aβ42 brain level: 56%
  reduction of level of Aβ oligomers in brain homogenate: 20.5%
